From patent US6608083B1, “Quinoline derivatives(2)” (SmithKline Beecham Farmaceutici S.p.A, priority 1994, dated 2003)
Where a name gives a salt, the structure may show the parent alone.

Columns and labels:
NK3 receptor = target: T1, NK3 receptor (Cavia porcellus, UniProt P30098); assay: Binding: displacement of [3H]-Senktide / [125I]-[Me-Phe7]-NKB, guinea-pig cortex membranes
T1 sequence (P30098 1-440): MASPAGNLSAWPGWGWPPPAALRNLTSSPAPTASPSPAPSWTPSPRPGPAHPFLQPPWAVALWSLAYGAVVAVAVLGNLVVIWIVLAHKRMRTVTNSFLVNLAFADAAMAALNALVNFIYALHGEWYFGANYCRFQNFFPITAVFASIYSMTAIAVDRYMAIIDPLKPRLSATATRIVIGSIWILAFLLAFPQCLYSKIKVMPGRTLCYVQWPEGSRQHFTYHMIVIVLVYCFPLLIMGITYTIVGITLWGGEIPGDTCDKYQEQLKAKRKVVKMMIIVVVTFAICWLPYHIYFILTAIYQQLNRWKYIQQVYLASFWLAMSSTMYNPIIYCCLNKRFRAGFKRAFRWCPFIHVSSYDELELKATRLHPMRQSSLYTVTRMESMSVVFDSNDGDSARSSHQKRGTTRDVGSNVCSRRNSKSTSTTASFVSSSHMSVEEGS
Procedure: The activity of the compounds of the present invention, as NK3 ligands, is determined by their ability to inhibit the binding of the radiolabelled NK3 ligands, [^125I]-[Me-Phe^7]-NKB or [^3H]-Senktide, to guinea-pig and human NK3 receptors (Renzetti et al, 1991, Neuropeptide, 18, 104-114; Buell et al, 1992, FEBS, 299(1), 90-95; Chung et al, 1994, Biochem. Biophys. Res. Commun., 198(3), 967-972). […] Binding assays provide for each compound tested a mean IC50 value of 2-5 separate experiments performed in duplicate or triplicate. […] The NK3-antagonist activity of the compounds of the present invention is determined by their ability to inhibit senktide-induced contraction of the guinea-pig ileum (Maggi et al, 1990, Br. J. PharmacoL, 101, 996-1000) and rabbit isolated iris sphincter muscle (Hall et al., 1991, Eur. J. PharmacoL, 199, 9-14) and human NK3 receptors-mediated Ca^++ mobilization (Mochizuki et al, 1994, J. Bio. Chem., 269, 9651-9658). Guinea-pig and rabbit in-vitro functional assays provide for each compound tested a mean KB value of 3-8 separate experiments, where KB is the concentration of the individual compound required to produce a 2-fold rightward shift in the concentration-response curve of senktide. Human receptor functional assay allows the determination of the concentration of the individual compound required to reduce by 50% (IC50 values) the Ca^++ mobilization induced by the agonist NKB.

Row | SMILES | melting point | Ki (NK3 receptor) [nM]
1 | COC(=O)C(NC(=O)c1cc(-c2ccccc2)nc2ccccc12)C1=CCC=CC1 (stereo not shown) [Example 16] | 120 to 122 °C | 
2 | CCC(NC(=O)c1c(OC)c(-c2ccccc2)nc2ccccc12)c1ccccc1 (stereo not shown) [Example 18] | 163 to 165 °C | 
3 | CCCCc1c(-c2ccccc2)nc2ccccc2c1C(=O)NC(CC)c1ccccc1 (stereo not shown) [Example 19] | 147 to 150 °C | 
4 | COC(=O)C(NC(=O)c1c2c(nc3ccccc13)-c1ccccc1CCC2)c1ccccc1 (stereo not shown) [Example 20] | 186 to 188 °C | 
5 | CCC(NC(=O)c1c(C)c(-c2ccccc2)nc2ccccc12)c1ccccc1 (stereo not shown) [Example 22] |  | 5.6
6 | CCC(NC(=O)c1c(-c2ccccc2)c(-c2ccccc2)nc2ccccc12)c1ccccc1 (stereo not shown) [Example 25] | 198 to 200 °C | 
7 | CCC(NC(=O)c1cc(-c2ccccc2)nc2ccccc12)c1ccc(Cl)c(Cl)c1 (stereo not shown) [Example 27] | 193 to 194 °C | 
8 | CCc1c(-c2ccccc2)nc2ccccc2c1C(=O)NC(C(=O)OC)c1ccccc1 (stereo not shown) [Example 36] | 156 to 157 °C | 
9 | CCc1c(-c2ccccc2)nc2ccccc2c1C(=O)NC(CC)c1ccccc1 (stereo not shown) [Example 38] | 158 to 159 °C | 
10 | CCC(NC(=O)c1c(N2C(=O)c3ccccc3C2=O)c(-c2ccccc2)nc2ccccc12)c1ccccc1 (stereo not shown) [Example 39] | 201 to 202 °C | 
11 | CCCc1c(-c2ccccc2)nc2ccccc2c1C(=O)NC(CC)c1ccccc1 (stereo not shown) [Example 40] | 149 to 151 °C | 
12 | CCC(NC(=O)c1c(C)c(-c2ccc(Br)cc2)nc2ccc(Br)cc12)c1ccccc1 (stereo not shown) [Example 41] | 230 to 231 °C | 
13 | CCC(NC(=O)c1c(C)c(-c2ccccc2)nc2ccc(Br)cc12)c1ccccc1 (stereo not shown) [Example 42] | 179 to 180 °C | 
14 | CCC(NC(=O)c1c(OC)c(-c2ccccc2)nc2ccccc12)c1ccccc1 (stereo not shown) [Example 47] | 132 to 134 °C | 8.8
15 | CCc1c(-c2ccccc2)nc2ccccc2c1C(=O)NC(CC)c1ccccc1 (stereo not shown) [Example 48] | 118 to 120 °C | 12
16 | CCC(NC(=O)c1cc(-c2ccccc2)nc2ccccc12)c1ccc(Cl)cc1 (stereo not shown) [Example 49] | 177 to 178 °C | 
17 | COC(=O)C(NC(=O)c1c2c(nc3ccccc13)-c1ccccc1CC2)c1ccccc1 (stereo not shown) [Example 52] | 217 to 219 °C | 
18 | COC(=O)C(NC(=O)c1cc(-c2nccs2)nc2ccccc12)c1ccccc1 (stereo not shown) [Example 54] | 209 to 211 °C | 
19 | O=C(NC1(c2ccccc2)CCCC1)c1cc(-c2ccccc2)nc2ccccc12 [Example 61] | 164 to 165 °C | 
20 | COC(=O)C(NC(=O)c1cc(-c2ccc3c(c2)OCO3)nc2ccccc12)c1ccccc1 (stereo not shown) [Example 63] | 186 to 187 °C | 
21 | CCC(NC(=O)c1cc(-c2ccccc2)nc2ccccc12)c1ccc(C)cc1 (stereo not shown) [Example 65] | 160 to 162 °C | 
22 | COC(=O)C(NC(=O)c1cc(-c2ccc(Cl)c(Cl)c2)nc2ccccc12)c1ccccc1 (stereo not shown) [Example 67] | 164 to 165 °C | 
23 | CCC(NC(=O)c1c(Cl)c(-c2ccccc2)nc2ccccc12)c1ccccc1 (stereo not shown) [Example 70] | 137 to 139 °C | 
24 | CCC(NC(=O)c1c(Br)c(-c2ccccc2)nc2ccccc12)c1ccccc1 (stereo not shown) [Example 71] | 119 to 122 °C | 
25 | COC(=O)C(NC(=O)c1cc(C2CCCCC2)nc2ccccc12)c1ccccc1 (stereo not shown) [Example 76] | 151 to 153 °C | 
26 | COC(=O)C(NC(=O)c1cc(-c2ccccc2)nc2c(OC(C)=O)cccc12)c1ccccc1 (stereo not shown) [Example 80] | 193 to 194 °C | 
27 | COC(=O)C(NC(=O)c1cc(-c2ccc(Cl)cc2Cl)nc2ccccc12)c1ccccc1 (stereo not shown) [Example 82] | 142 to 143 °C | 

Next, values leading:

Row | melting point | Ki (NK3 receptor) [nM] | SMILES
28 | 140 °C (dec.) |  | COC(=O)[C@H](NC(=O)c1cc(-c2ccccc2)nc2ccccc12)c1ccc(O)cc1.Cl
29 | 203 to 205 °C |  | O=C(NC(C(=O)O)c1ccccc1)c1cc(-c2ccccc2)nc2ccccc12 (stereo not shown) (as salt: HCl) [Example 92]
30 | 204 to 205 °C |  | C[C@H](O)[C@H](NC(=O)c1cc(-c2ccccc2)nc2ccccc12)c1ccccc1 [Example 17, (R,S)-N-[α-(1-hydroxyethyl)benzyl]-2-phenylquinoline-4-carboxamide]
31 | 124 to 125 °C |  | COC(=O)C(NC(=O)c1cc(-c2ccccc2OC)nc2ccccc12)c1ccccc1 (stereo not shown) [Example 24]
32 | 146 to 147 °C |  | COC(=O)C(NC(=O)c1cc(-c2ccccc2F)nc2ccccc12)c1ccccc1 (stereo not shown) [Example 26]
33 | 117 to 119 °C |  | O=C(NC(CO)c1ccccc1)c1cc(-c2ccccc2)nc2ccccc12 (stereo not shown) [Example 28]
34 | 180 to 181 °C |  | COC(=O)C(NC(=O)c1c(C)c(-c2ccccc2)nc2ccccc12)c1ccccc1 (stereo not shown) [Example 30]
35 | 180 to 183 °C |  | COC(=O)C(NC(=O)c1cc(-c2ccccc2)nc2cc(Cl)ccc12)c1ccccc1 (stereo not shown) [Example 32]
36 | 179 to 181 °C |  | COC(=O)C(NC(=O)c1cc(-c2ccccc2)nc2ccc(C)cc12)c1ccccc1 (stereo not shown) [Example 33]
37 | 144 to 145 °C |  | COCC(NC(=O)c1cc(-c2ccccc2)nc2ccccc12)c1ccccc1 (stereo not shown) [Example 34]
38 | 197 to 199 °C |  | COC(=O)C(NC(=O)c1cc(-c2ccccc2)nc2ccc(Cl)cc12)c1ccccc1 (stereo not shown) [Example 35]
39 | 149 to 150 °C |  | CCCC(NC(=O)c1cc(-c2ccccc2)nc2ccccc12)c1ccccc1 (stereo not shown) [Example 37]
40 | 209 to 211 °C |  | COC(=O)C(NC(=O)c1cc(-c2ccccc2)nc2ccc(OC)cc12)c1ccccc1 (stereo not shown) [Example 43]
41 | 240 to 241 °C |  | COC(=O)C(NC(=O)c1cc(-c2cc3ccccc3o2)nc2ccccc12)c1ccccc1 (stereo not shown) [Example 44]
42 | 194 to 196 °C |  | O=C(NC(Cc1ccccc1)c1ccccc1)c1cc(-c2ccccc2)nc2ccccc12 (stereo not shown) [Example 45]
43 | 180 to 181 °C |  | O=C(NC(c1ccccc1)C(F)(F)F)c1cc(-c2ccccc2)nc2ccccc12 (stereo not shown) [Example 46]
44 | 128 to 129 °C |  | COC(=O)C(c1ccccc1)N(C)C(=O)c1cc(-c2ccccc2)nc2ccccc12 (stereo not shown) [Example 50]
45 | 169 to 171 °C |  | COC(=O)C(NC(=O)c1cc(-c2ccsc2)nc2ccccc12)c1ccccc1 (stereo not shown) [Example 51]
46 | 181 to 182 °C |  | COC(=O)C(NC(=O)c1cc(-c2ccc[nH]2)nc2ccccc12)c1ccccc1 (stereo not shown) [Example 53]

Row | melting point | Ki (NK3 receptor) [nM] | SMILES
47 | 155 to 156 °C |  | CCCCC(NC(=O)c1cc(-c2ccccc2)nc2ccccc12)c1ccccc1 (stereo not shown) [Example 56]
48 | 172 to 174 °C |  | COC(=O)C(NC(=O)c1cc(-c2ccc(C)cc2)nc2ccccc12)c1ccccc1 (stereo not shown) [Example 57]
49 | 180 to 182 °C |  | COC(=O)C(NC(=O)c1cc(-c2ccccc2C)nc2ccccc12)c1ccccc1 (stereo not shown) [Example 59]
50 | 182 to 183 °C |  | COC(=O)C(NC(=O)c1cc(-c2ccc(OC)cc2)nc2ccccc12)c1ccccc1 (stereo not shown) [Example 60]
51 | 226 to 227 °C |  | COC(=O)C(NC(=O)c1cc(-c2ccc(O)cc2)nc2ccccc12)c1ccccc1 (stereo not shown) [Example 62]
52 | 173 to 174 °C |  | CC(C)(NC(=O)c1cc(-c2ccccc2)nc2ccccc12)c1ccccc1 [Example 64]
53 | 202 to 204 °C |  | COC(=O)C(NC(=O)c1cc(-c2cc[nH]c2)nc2ccccc12)c1ccccc1 (stereo not shown) [Example 66]
54 | 139 to 141 °C |  | NCC(NC(=O)c1cc(-c2ccccc2)nc2ccccc12)c1ccccc1 (stereo not shown) [Example 68]
55 | 165 to 166 °C |  | CC(C)C(NC(=O)c1cc(-c2ccccc2)nc2ccccc12)c1ccccc1 (stereo not shown) [Example 72]
56 | 174 to 176 °C |  | COC(=O)C(NC(=O)c1cc(-c2ccccc2)nc2ccc(F)cc12)c1ccccc1 (stereo not shown) [Example 75]
57 | 161 to 163 °C |  | COC(=O)C(NC(=O)c1cc(-c2cccc(Cl)c2)nc2ccccc12)c1ccccc1 (stereo not shown) [Example 77]
58 | 175 to 178 °C |  | COC(=O)C(NC(=O)c1cc(-c2ccccc2Cl)nc2ccccc12)c1ccccc1 (stereo not shown) [Example 78]
59 | 178 to 180 °C |  | COC(=O)C(NC(=O)c1cc(-c2ccccc2)nc2c(O)cccc12)c1ccccc1 (stereo not shown) [Example 81]
60 | 182 to 184 °C |  | O=C(NC(c1ccccc1)c1ccccc1)c1cc(-c2ccccc2)nc2ccccc12 [Example 84]
61 | 125 to 127 °C |  | COC(=O)C(NC(=O)c1c(O)c(-c2ccccc2)nc2ccccc12)c1ccccc1 (stereo not shown) [Example 87]
62 | 133 to 135 °C |  | CN(C)CC(NC(=O)c1cc(-c2ccccc2)nc2ccccc12)c1ccccc1 (stereo not shown) [Example 88]
63 | 219 to 221 °C |  | CN(C)C(=O)C(NC(=O)c1cc(-c2ccccc2)nc2ccccc12)c1ccccc1 (stereo not shown) [Example 89]
64 | 237 to 238 °C |  | NC(=O)C(NC(=O)c1cc(-c2ccccc2)nc2ccccc12)c1ccccc1 (stereo not shown) [Example 90]
65 | 199 to 200 °C |  | O=C(NC(C(=O)N1CCCC1)c1ccccc1)c1cc(-c2ccccc2)nc2ccccc12 (stereo not shown) [Example 91]
